We go through 3 compounds from ChEMBL document CHEMBL4118098, “Discovery of DS28120313 as a potent orally active hepcidin production inhibitor: Design and optimization of novel 4,6-disubstituted indazole derivatives” (Bioorg Med Chem Lett, 2017).

As a reminder, the inhibition is the change of the read-out against control, counted positive when it falls.

Assay [1] addresses Platelet-derived growth factor receptor alpha (Homo sapiens) (UniProt P16234). In words: Inhibition of PDGFR alpha (unknown origin) at 0.164 uM relative to control.
For assay [2], the target named is Phosphorylase b kinase gamma catalytic chain, skeletal muscle/heart isoform (Homo sapiens) (UniProt Q16816). Kind of assay: Inhibition of PhKg1 (unknown origin) at 0.164 uM relative to control.
The target of assay [3] is Calcium/calmodulin-dependent protein kinase type II subunit gamma (Homo sapiens) (UniProt Q13555). Kind of assay: Inhibition of CaMK2-gamma (unknown origin) at 0.164 uM relative to control.
Assay [4] has as its target Aurora kinase C (Homo sapiens) (UniProt Q9UQB9). Kind of assay: Inhibition of AurC (unknown origin) at 0.45 uM relative to control.
The target of assay [5] is T1, Serine/threonine-protein kinase DCLK1 (Homo sapiens) (UniProt O15075).
T1 sequence (whole entry): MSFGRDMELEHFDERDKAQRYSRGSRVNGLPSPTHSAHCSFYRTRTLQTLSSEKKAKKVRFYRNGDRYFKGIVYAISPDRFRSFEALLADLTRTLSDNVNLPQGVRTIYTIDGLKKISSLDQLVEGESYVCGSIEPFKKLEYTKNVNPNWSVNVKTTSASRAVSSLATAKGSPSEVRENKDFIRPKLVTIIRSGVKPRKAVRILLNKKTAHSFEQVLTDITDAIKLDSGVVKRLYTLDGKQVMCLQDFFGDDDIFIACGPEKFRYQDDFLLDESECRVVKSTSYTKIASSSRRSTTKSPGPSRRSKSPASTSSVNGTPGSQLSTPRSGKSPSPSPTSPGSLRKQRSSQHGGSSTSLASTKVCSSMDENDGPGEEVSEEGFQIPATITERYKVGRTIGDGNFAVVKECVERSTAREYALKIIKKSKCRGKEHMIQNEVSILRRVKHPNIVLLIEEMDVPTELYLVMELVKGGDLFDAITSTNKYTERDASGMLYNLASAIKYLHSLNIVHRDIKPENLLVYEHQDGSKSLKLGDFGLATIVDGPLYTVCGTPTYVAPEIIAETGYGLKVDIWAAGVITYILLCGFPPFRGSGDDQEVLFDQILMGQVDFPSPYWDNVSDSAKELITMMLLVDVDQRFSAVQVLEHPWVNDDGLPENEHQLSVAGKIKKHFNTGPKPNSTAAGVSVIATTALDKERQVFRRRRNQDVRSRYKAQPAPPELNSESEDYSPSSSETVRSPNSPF
Kind of assay: Inhibition of DCAMKL1 (unknown origin) at 0.19 uM relative to control.

Assay [6] has as its target Vascular endothelial growth factor receptor 1 (Homo sapiens) (UniProt P17948). Kind of assay: Inhibition of FLT1 (unknown origin) at 0.19 uM relative to control.
Assay [7] relates to Tyrosine-protein kinase ABL1 (Homo sapiens), P00519 [T315I]. In words: Inhibition of Abl T315I mutant (unknown origin) at 0.19 uM relative to control.
Assay [8] concerns the target T2, Serine/threonine-protein kinase D1 (Homo sapiens) (UniProt Q15139).
T2 sequence (whole entry): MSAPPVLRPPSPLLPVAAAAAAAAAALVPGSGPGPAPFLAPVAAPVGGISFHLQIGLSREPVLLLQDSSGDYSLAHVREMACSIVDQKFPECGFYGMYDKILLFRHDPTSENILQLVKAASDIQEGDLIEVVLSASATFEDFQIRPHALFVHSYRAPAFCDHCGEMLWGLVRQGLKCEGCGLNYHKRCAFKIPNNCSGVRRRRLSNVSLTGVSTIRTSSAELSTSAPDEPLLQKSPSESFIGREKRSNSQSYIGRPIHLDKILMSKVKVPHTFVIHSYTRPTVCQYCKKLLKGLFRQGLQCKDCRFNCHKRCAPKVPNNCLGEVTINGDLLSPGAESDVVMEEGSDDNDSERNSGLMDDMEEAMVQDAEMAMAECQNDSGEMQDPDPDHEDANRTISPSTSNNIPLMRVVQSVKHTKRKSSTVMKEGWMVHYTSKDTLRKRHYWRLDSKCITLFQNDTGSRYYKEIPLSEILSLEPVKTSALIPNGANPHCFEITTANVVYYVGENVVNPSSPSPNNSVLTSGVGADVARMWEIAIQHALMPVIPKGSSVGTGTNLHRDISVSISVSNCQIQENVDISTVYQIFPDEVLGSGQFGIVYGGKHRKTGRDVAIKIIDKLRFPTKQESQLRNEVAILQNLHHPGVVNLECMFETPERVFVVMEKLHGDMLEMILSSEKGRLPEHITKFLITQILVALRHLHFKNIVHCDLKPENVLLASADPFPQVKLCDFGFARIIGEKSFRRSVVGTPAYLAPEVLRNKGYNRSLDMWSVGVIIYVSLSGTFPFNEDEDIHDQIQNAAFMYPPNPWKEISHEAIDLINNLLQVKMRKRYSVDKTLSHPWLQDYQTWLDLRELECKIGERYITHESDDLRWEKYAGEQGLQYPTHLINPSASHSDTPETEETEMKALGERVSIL
Kind of assay: Inhibition of PKD1 (unknown origin) at 0.19 uM relative to control.

In assay [9] the target is T3, Tyrosine-protein kinase TXK (Homo sapiens) (UniProt P42681).
T3 sequence (whole entry): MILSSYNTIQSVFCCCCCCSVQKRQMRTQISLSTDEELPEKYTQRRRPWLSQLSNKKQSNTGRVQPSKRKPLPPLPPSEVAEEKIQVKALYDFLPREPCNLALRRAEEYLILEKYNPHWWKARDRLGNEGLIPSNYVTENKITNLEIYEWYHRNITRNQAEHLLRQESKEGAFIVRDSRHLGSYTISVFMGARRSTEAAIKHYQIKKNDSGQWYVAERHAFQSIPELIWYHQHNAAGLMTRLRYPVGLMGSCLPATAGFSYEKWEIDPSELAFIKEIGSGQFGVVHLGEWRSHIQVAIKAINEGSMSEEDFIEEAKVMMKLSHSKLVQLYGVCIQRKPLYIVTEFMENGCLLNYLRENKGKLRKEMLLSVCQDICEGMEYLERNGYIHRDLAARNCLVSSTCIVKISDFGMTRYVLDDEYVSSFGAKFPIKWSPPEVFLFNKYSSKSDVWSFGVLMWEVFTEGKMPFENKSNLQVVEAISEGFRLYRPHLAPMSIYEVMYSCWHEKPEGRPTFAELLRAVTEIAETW
Kind of assay: Inhibition of TXK (unknown origin) at 0.19 uM relative to control.

In assay [10] the test system is Epidermal growth factor receptor (Homo sapiens), P00533 [T790M]. In words: Inhibition of EGFR T790M mutant (unknown origin) at 0.19 uM relative to control.
In assay [11] the test system is Leucine-rich repeat serine/threonine-protein kinase 2 (Homo sapiens), Q5S007 [G2019S]. In words: Inhibition of LRRK2 G2019S mutant (unknown origin) at 0.19 uM relative to control.
Chain of Leucine-rich repeat serine/threonine-protein kinase 2 (Homo sapiens), Q5S007 [G2019S] (Q5S007 whole entry G2019S): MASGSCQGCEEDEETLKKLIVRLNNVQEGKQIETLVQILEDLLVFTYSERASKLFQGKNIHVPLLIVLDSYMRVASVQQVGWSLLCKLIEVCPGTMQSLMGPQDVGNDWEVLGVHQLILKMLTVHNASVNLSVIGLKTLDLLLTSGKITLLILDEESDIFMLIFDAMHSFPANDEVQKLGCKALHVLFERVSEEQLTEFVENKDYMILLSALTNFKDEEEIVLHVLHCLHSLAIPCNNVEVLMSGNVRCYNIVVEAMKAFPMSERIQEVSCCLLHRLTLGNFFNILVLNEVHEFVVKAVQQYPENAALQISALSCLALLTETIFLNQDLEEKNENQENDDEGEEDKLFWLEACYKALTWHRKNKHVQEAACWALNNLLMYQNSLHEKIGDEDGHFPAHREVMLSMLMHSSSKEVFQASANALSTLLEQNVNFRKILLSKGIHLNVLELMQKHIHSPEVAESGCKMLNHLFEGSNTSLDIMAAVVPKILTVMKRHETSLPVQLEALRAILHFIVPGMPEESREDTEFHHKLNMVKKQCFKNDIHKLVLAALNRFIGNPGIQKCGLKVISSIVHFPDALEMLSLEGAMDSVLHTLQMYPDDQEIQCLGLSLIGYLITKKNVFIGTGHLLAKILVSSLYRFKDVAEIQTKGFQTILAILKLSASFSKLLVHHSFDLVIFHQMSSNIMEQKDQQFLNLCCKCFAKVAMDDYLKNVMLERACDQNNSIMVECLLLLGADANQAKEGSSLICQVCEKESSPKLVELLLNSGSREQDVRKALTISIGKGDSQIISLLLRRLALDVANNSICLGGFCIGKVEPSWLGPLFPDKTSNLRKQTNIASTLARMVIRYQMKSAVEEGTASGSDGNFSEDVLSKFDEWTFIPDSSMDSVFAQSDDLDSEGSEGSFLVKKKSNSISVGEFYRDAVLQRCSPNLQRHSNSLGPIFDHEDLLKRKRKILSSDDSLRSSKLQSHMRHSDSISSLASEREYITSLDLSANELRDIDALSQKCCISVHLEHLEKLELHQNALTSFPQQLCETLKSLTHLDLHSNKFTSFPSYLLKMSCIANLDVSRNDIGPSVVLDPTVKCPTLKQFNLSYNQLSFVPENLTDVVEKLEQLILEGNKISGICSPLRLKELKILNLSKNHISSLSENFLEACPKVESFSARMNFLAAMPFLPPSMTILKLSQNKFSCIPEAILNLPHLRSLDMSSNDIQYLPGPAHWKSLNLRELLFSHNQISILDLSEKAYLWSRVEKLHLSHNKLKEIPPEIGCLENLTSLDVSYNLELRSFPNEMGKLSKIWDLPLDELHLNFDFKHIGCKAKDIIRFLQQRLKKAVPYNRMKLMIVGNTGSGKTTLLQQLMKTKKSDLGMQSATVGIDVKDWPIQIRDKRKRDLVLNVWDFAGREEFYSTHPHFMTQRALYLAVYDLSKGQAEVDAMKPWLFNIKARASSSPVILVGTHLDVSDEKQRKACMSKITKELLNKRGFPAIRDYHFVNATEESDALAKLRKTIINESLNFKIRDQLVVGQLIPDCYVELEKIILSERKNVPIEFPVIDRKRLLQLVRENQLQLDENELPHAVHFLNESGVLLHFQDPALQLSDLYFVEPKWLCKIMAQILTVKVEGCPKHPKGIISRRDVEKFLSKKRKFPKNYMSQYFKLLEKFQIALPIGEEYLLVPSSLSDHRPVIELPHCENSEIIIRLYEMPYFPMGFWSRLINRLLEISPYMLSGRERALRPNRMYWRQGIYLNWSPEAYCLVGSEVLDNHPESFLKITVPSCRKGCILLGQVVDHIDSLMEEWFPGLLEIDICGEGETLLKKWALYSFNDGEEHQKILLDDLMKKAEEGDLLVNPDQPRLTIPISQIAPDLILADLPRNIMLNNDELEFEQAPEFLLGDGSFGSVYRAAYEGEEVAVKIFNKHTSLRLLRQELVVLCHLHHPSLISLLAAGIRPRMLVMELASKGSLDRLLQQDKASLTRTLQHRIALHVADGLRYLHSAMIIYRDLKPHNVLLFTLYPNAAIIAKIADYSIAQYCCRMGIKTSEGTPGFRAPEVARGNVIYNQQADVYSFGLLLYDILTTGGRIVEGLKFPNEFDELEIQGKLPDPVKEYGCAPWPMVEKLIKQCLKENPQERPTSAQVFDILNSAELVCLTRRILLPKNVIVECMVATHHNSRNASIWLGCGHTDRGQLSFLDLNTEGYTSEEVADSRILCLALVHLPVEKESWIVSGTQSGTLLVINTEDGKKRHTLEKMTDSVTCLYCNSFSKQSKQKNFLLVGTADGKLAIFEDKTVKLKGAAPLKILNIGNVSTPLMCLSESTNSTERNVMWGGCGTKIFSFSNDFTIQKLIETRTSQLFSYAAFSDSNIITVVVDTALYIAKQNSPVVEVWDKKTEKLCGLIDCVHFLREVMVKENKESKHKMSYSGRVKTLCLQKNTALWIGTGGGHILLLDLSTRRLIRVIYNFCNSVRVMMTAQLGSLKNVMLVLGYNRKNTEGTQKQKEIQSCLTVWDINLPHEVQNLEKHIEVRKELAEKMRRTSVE

Chain of Phosphorylase b kinase gamma catalytic chain, skeletal muscle/heart isoform (Homo sapiens) (Q16816 whole entry, looked up, canonical isoform): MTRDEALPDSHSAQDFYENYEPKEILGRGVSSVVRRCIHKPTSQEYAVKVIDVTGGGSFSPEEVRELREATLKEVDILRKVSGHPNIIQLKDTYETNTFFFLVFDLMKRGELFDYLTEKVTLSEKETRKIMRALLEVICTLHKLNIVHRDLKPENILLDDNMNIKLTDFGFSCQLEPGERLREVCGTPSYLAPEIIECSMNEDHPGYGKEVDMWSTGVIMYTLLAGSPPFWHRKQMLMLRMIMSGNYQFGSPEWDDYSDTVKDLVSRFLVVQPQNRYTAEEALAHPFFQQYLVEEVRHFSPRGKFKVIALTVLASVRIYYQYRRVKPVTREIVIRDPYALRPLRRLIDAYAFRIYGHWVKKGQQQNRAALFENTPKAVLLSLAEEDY
Chain of Platelet-derived growth factor receptor alpha (Homo sapiens) (P16234 whole entry, canonical isoform): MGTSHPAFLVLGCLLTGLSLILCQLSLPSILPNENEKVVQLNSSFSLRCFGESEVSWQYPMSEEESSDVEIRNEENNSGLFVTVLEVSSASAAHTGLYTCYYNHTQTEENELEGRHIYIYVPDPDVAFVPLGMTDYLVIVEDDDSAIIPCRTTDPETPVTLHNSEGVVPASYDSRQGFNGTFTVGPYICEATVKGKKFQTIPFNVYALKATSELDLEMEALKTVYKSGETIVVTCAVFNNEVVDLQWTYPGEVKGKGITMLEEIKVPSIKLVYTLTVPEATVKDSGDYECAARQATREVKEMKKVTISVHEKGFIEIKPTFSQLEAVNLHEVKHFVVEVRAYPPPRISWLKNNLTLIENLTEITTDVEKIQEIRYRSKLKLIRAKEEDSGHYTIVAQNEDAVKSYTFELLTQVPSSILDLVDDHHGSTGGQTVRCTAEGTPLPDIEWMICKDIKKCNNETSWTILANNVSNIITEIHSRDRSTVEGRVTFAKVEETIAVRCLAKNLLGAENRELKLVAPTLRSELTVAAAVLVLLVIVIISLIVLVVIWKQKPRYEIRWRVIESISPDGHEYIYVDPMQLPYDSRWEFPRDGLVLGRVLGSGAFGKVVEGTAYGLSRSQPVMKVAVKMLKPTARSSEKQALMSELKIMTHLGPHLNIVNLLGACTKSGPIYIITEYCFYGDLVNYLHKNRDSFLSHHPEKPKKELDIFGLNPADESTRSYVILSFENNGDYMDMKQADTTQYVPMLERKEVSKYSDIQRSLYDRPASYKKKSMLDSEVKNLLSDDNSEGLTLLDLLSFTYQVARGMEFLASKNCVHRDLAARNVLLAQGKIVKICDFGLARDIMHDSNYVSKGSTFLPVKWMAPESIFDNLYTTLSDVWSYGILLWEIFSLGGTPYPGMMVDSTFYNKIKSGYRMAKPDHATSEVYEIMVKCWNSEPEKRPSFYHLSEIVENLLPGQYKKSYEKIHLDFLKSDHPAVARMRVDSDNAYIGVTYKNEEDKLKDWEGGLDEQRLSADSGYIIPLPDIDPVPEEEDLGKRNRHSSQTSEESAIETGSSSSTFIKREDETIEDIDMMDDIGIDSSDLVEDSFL
Chain of Aurora kinase C (Homo sapiens) (Q9UQB9 whole entry): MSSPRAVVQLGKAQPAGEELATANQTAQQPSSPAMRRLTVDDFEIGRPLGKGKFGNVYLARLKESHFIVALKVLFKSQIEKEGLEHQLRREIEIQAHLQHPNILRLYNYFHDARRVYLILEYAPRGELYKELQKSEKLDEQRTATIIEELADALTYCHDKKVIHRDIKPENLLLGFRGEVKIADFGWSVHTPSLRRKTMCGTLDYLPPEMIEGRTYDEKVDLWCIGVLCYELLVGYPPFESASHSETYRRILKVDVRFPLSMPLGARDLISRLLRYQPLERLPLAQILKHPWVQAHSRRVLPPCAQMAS
Chain of Calcium/calmodulin-dependent protein kinase type II subunit gamma (Homo sapiens) (Q13555 whole entry): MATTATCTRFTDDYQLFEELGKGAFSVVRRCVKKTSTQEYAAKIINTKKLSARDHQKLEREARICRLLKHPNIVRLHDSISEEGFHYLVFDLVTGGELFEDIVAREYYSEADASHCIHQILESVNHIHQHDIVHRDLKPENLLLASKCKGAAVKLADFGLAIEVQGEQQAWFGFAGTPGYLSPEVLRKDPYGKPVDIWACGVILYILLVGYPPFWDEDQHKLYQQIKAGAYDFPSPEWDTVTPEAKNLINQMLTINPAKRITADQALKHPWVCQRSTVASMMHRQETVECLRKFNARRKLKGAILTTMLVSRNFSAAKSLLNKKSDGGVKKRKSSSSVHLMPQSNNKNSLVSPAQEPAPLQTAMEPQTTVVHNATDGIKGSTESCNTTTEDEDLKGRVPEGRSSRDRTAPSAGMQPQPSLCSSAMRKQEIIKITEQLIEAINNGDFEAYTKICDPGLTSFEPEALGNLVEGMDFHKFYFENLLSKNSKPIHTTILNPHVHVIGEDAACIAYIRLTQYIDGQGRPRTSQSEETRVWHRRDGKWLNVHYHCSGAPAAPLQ

For `COC(=O)Nc1cc(-c2c(C3CC3)n[nH]c2C)cc2[nH]ncc12`, the inhibition stood at 11.7% in assay [1], 1% in assay [2] and 18% in assay [3].

Consider `Cc1n[nH]c(C)c1-c1ccc2c(NC(=O)c3ccc(N4CCN(C)CC4)cc3)n[nH]c2c1`, for which the inhibition in [4] is -1%.

On to `Cc1[nH]nc(C2CC2)c1-c1ccc2c(-c3ccc(N4CCN(C)CC4)nc3)n[nH]c2c1`, for which the inhibition in assay [5] was -1.3%; in [6], 14.7%; in [7], 51.7%; in assay [8], 7%; in assay [9] it was -8.3%; in assay [10], 0.7%. The inhibition in assay [11] was determined as 18%.
